Where a name gives a salt, the structure may show the parent alone. Read-outs that look alike come from different tables or passages of the source.
Assays:
Assay type in all cases: biochemical
[1] = target: T1, recombinant PRL-2 (Homo sapiens, UniProt Q12974); test: In vitro phosphatase assay (DiFMUP hydrolysis), PRL-2;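 also: PRL-2 activity read as DiFMUP hydrolysis after 20 min at room temperature with drug, enzyme first pre-reduced at 4 °C for 20 min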
T1 construct: 6xHis (N, cleaved yes); made in house; host or cells: E. coli One Shot BL21 Star
T1 sequence (Q12974 1-167): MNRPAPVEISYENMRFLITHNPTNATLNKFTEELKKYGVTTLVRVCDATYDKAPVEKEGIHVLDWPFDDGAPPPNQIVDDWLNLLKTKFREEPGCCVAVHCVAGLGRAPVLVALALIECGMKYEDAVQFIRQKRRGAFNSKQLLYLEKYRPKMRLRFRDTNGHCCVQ

[2] = target: T2, recombinant PRL-1 (Homo sapiens, UniProt Q93096); test: In vitro phosphatase assay (DiFMUP hydrolysis), PRL-1
T2 construct: 6xHis (N, cleaved yes); made in house; host or cells: E. coli One Shot BL21 Star
T2 sequence (Q93096 1-173): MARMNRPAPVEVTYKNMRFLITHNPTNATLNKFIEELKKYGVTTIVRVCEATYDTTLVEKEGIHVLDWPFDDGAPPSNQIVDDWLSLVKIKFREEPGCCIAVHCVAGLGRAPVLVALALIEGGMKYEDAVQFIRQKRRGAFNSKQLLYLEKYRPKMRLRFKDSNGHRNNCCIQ

[3] = target: T3, recombinant PRL-3 (Homo sapiens, UniProt O75365); test: In vitro phosphatase assay (DiFMUP hydrolysis), PRL-3
T3 construct: 6xHis (N, cleaved yes); made in house; host or cells: E. coli One Shot BL21 Star

[4] = FDA-approved drug screen, compared to DMSO

T3 sequence (O75365 whole entry): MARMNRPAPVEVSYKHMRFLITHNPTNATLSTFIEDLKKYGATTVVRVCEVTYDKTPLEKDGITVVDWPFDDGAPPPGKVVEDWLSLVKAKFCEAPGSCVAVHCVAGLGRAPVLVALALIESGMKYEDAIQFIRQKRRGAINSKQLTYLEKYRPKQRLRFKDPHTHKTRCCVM

| Structure (SMILES) | % Phosphatase Activity (compared to DMSO) PRL-2 [1, 4] [%] | % Phosphatase Activity (compared to DMSO) PRL-1 [2, 4] [%] | % Phosphatase Activity (compared to DMSO) PRL-3 [3, 4] [%] | further results |
| --- | --- | --- | --- | --- |
| O=C(CCCN1CCC(O)(c2ccc(Cl)cc2)CC1)c1ccc(F)cc1 [Haloperidol] | 100 | 93 | 93 | – |
| FC(F)(F)C(Cl)Br (stereo not drawn) [Halothane] | 95 | 102 | 79 | – |
| Oc1c(Cl)cc(Cl)c(Cl)c1Cc1c(O)c(Cl)cc(Cl)c1Cl [Hexachlorophene, reference compound] | -9 | -2.83 | -4 | IC50 ([1]; 2.5 µM protein, DiFMUP at KM, read-out: Calculated IC50, PRL-2 phosphatase activity): 35 ± 10 µM; IC50 ([2]; 2.5 µM protein, DiFMUP at KM, read-out: Calculated IC50, PRL-1 phosphatase activity): 31 ± 4 µM; IC50 ([3]; 2.5 µM protein, DiFMUP at KM, read-out: Calculated IC50, PRL-3 phosphatase activity): 13 ± 1 µM |
| C[N+](C)(C)CCCCCC[N+](C)(C)C [Hexamethonium Bromide] | 89 | 87 | 84 | – |
| CCCCCCc1ccc(O)cc1O [Hexylresorcinol] | 83 | 90 | 84 | – |
| Cl.Cl.NCCc1c[nH]cn1 [Histamine 2HCl] | – | – | – | % Phosphatase Activity (compared to DMSO) PRL-2 [1]: 118%; % Phosphatase Activity (compared to DMSO) PRL-1 [2]: 97%; % Phosphatase Activity (compared to DMSO) PRL-3 [3]: 71% |
| C[N+]1(C)[C@@H]2CC[C@H]1C[C@@H](OC(=O)C(O)c1ccccc1)C2 (stereo partly drawn) [Homatropine Methylbromide] | 100 | 107 | 95 | – |
| NNc1nncc2ccccc12 [Hydralazine HCl] | – | – | – | % Phosphatase Activity (compared to DMSO) PRL-2 [1]: 85%; % Phosphatase Activity (compared to DMSO) PRL-1 [2]: 102%; % Phosphatase Activity (compared to DMSO) PRL-3 [3]: 87% |
| NS(=O)(=O)c1cc2c(cc1Cl)NCNS2(=O)=O [Hydrochlorothiazide] | 122 | 97 | 76 | – |
| C[C@]12CCC(=O)C=C1CC[C@@H]1[C@@H]2[C@@H](O)C[C@@]2(C)[C@H]1CC[C@]2(O)C(=O)CO [Hydrocortisone] | 91 | 102 | 79 | – |
| CC[C@H]1CN2CC[C@H]1C[C@@H]2[C@@H](O)c1ccnc2ccc(OC)cc12 [Hydroquinidine] | 120 | 105 | 92 | – |
| Oc1ccc(O)cc1 [Hydroquinone] | – | – | – | % Phosphatase Activity (compared to DMSO) PRL-2 [1]: 91%; % Phosphatase Activity (compared to DMSO) PRL-1 [2]: 90%; % Phosphatase Activity (compared to DMSO) PRL-3 [3]: 70% |
| CCN(CCO)CCCC(C)Nc1ccnc2cc(Cl)ccc12 (stereo not drawn) [Hydroxychloroquine Sulfate] | 100 | 96 | 100 | – |
| CCCCCC(=O)O[C@]1(C(C)=O)CC[C@H]2[C@@H]3CCC4=CC(=O)CC[C@]4(C)[C@H]3CC[C@@]21C [Hydroxyprogesterone caproate] | 84 | 91 | 73 | – |
| NC(=O)NO [Hydroxyurea] | 113 | 91 | 100 | – |
| CN[C@H]1C[C@@H](N)[C@H](O)[C@@H](O[C@@H]2O[C@H](CO)[C@H](O)[C@@H]3OC4(O[C@H]23)O[C@H]([C@@H](N)CO)[C@H](O)[C@H](O)[C@H]4O)[C@@H]1O (stereo partly drawn) [Hygromycin B] | 98 | 91 | 103 | – |

| Structure (SMILES) | % Phosphatase Activity (compared to DMSO) PRL-2 [1, 4] [%] | % Phosphatase Activity (compared to DMSO) PRL-1 [2, 4] [%] | % Phosphatase Activity (compared to DMSO) PRL-3 [3, 4] [%] | further results |
| --- | --- | --- | --- | --- |
| C[C@H](Nc1ncnc2nc[nH]c12)c1cc2cccc(Cl)c2c(=O)n1-c1ccccc1 [IPI-145 (INK1197)] | 88 | 107 | 97 | – |
| CCCCCN(C)CCC(O)(P(=O)([O-])O)P(=O)(O)O.[Na+] [Ibandronate sodium] | 96 | 93 | 109 | – |
| CC(C)Cc1ccc(C(C)C(=O)O)cc1 (stereo not drawn) [Ibuprofen] | 87 | 99 | 82 | – |
| CCCCCCCN(CC)CCCC(O)c1ccc(NS(C)(=O)=O)cc1.CCCCCCCN(CC)CCCC(O)c1ccc(NS(C)(=O)=O)cc1.O=C(O)/C=C/C(=O)O (stereo not drawn) [Ibutilide Fumarate] | 128 | 100 | 88 | – |
| COc1cc(C(=O)O)ccc1NC(=O)[C@@H]1N[C@@H](CC(C)(C)C)[C@](C#N)(c2ccc(Cl)cc2F)[C@H]1c1cccc(Cl)c1F [Idasanutlin (RG-7388)] | 15 | 7 | 2 | – |
| O=c1[nH]c(=O)n([C@H]2C[C@H](O)[C@@H](CO)O2)cc1I [Idoxuridine] | 103 | 94 | 90 | – |
| O=C1C2CC3CC1CC(O)(C3)C2 [Idramantone] | 113 | 105 | 86 | – |
| O=P1(NCCCl)OCCCN1CCCl (stereo not drawn) [Ifosfamide] | 99 | 100 | 78 | – |
| CNC(=O)[C@H](Cc1c[nH]c2ccccc12)NC(=O)[C@@H](CC(=O)NO)CC(C)C [Ilomastat (GM6001, Galardin)] | 80 | 94 | 91 | – |
| COc1cc(C(C)=O)ccc1OCCCN1CCC(c2noc3cc(F)ccc23)CC1 [Iloperidone] | 88 | 105 | 80 | – |
| CCOC(=O)[C@H](CCc1ccccc1)N[C@@H](C)C(=O)N1C(=O)N(C)C[C@H]1C(=O)O [Imidapril HCl] | 95 | 105 | 76 | – |
| CC(C)Cn1cnc2c(N)nc3ccccc3c21 [Imiquimod] | 106 | 98 | 67 | – |
| CCc1cc2c(cc1CC)CC(NC[C@H](O)c1ccc(O)c3[nH]c(=O)ccc13)C2 [Indacaterol Maleate] | 100 | 95 | 95 | – |
| CC1Cc2ccccc2N1NC(=O)c1ccc(Cl)c(S(N)(=O)=O)c1 (stereo not drawn) [Indapamide] | 105 | 98 | 117 | – |
| COc1ccc2c(c1)c(CC(=O)O)c(C)n2C(=O)c1ccc(Cl)cc1 [Indomethacin] | 106 | 96 | 71 | – |
